In patent US6730787B1, “2,4Dioxo-5-arylidenimino-1,3-pyrimidines” (priority 2001, dated 2004):
In brackets after ≈: the same amount, converted by molar mass. Read-outs that look alike come from different tables or passages of the source.

What was measured:
[1] = test system: C.trachomatis D323; assay: Effect on Chlamydia trachomatis in cell culture; format: cell-based; conditions: for percentage of cell protection from infection / Number of unchanged cells: 100 mg/l, 48 hours; for Number of unchanged cells: counted in 100 visual fields; for activity against chlamydia (in words): compared with Ciprofloxacin / compounds of Table 5
Description: The […] activity of the claimed compounds was studied in respect to C.trachomatis […], which is a standard strain contained in the collection of the department of microbiology of St. Petersburg State Pavlov Medical University. […] Cells were grown in flasks made of neutral glass in the medium RPMI-1640 containing 10% of fetal calf serum. The test was performed in flat-bottom flasks made of glass (non-toxic), that were supplied with cover glasses. The cells were introduced into the medium in the final concentration of 1×10^6 cell/ml. […] Simultaneously, tested compounds in a final concentration of 100 mg/l were added to the cells. The sample was centrifuged at 2400 G for 60 minutes at a room temperature and incubated at 37° C. for 2 hours. […] The samples were doubled using the medium without cycloheximide so as to exclude its effect on the investigated compounds. The samples were incubated for 48 hours in CO2-incubator. […] The effect of the compound was determined by analysis of the monolayer state and number of cells with CPI when compared with the control (cell culture infected with C.trachomatis […]); in doing so, the number of unchanged cells, that were counted in 100 visual fields obtained using the eyepiece-micrometer, was taken into consideration.

[2] = test system: no-breed white mice; format: in vivo; conditions: observed 72 hours, 300 was the maximally utilized concentration
Description: Tested substance was introduced orally (in dose of 300 mg/kg) through a gastric tube or intraperitoneally (in dose of 100 mg/kg) to no-breed white mice with mass 18-20 g (each tested group consisted of 3 males and 3 females). Then the mouse state was observed during 72 hours. Absence of symptoms characteristic of toxic effects, or absence of animal death during the given time allows to make a conclusion that the toxicity of the tested substance is low. If acute toxicity effects are observed, the dose is reduced to find maximal tolerable dose.

[3] = test system: Herpes Simplex virus of the type I (HSV-I/Leningrad/248/88); assay: Effect on Herpes Simplex virus: cytopathogenic effect in Vero cells; format: cell-based; conditions: for Quantity of the unchanged cells: number of cells in 100 visual fields
[4] = test system: Mycobaciterium tuberculosis H37RV; assay: Antimicrobial effect, serial dilution method (MIC); format: cell-based, Mycobacterium tuberculosis; conditions: 72-hour cultivation at 37° C.
[5] = test system: mice; assay: Analgesic activity (tail withdrawal from radiant heat); format: in vivo
Description: The time needed to draw back a tail placed under a directed source of radiant heat was estimated in a group of 3 mice. Prolongation of the response time by more than 50% after intraperitoneal dosing the substance (30 mg/kg) indicated analgesic activity. Analginum (2 mg/kg) was utilized as a reference agent.

[6] = test system: primary culture of human lymphocytes; assay: Interferon-inducing activity in primary culture of human lymphocytes (IFN-α immunoenzyme test); format: cell-based
Description: To obtain lymphocyte culture, fresh blood (within 12 hours after sampling) from healthy donors (not of group II) was used. To separate lymphocytes, heparinized blood obtained from healthy donor was centrifuged in a density gradient ficoll-verografin of […] in order to extract a fraction of immunocompetent cells. This fraction was selected and diluted with the nutrient medium RPMI-1640, containing 5% of fetal calf serum, 0.3 mg/ml of L-glutamin, 100 un/ml of penicillin, and 50 μg/ml of streptomycin. The concentration of lymphocytes was considered after dying them with methylene blue and calculation of cell number in a chamber of a hemocytometer. Initial solutions of the claimed compounds were diluted with the nutrient medium RPMI-1640 so that the final concentrations of the compounds which were obtained after introduction of lymphocyte suspension, constituted the raw: 100 μg/ml, 10 μg/ml, 1 μg/ml. The final concentration of lymphocytes in the induction mixture was 3×10^6 cell/ml.
Control and test samples were incubated for 24 hours at the temperature of 37° C. After incubation, the samples were centrifuged at 2,000 G to deposit cell elements, and IFN-containing supernatant was separate out of the samples; then the supernatant was analyzed for the quantitative content of IFN. Cell deposition was resuspended in the preceding volume of nutrient medium, colored with vital dye trypan blue, and cell number was counted in a chamber of a hemocytometer (as described above) to determine cytotoxic effect of the compounds.
Quantitative determination of the content of IFN in control and test samples was conducted using the immunoenzyme test system Pro Con IF2 Plus, that is intended for determination of IFN-α, which is produced by TOO <<Protein contour>>. The solid-phase immunoenzyme method, utilizing horse radish peroxidase as an indicator enzyme, was used to determine the quantity of interferon in the samples. Activity of the bonded peroxidase was measured using an automatic photometer for microplates with a microprocessor at the wavelength of 450 nm.
Based on the obtained results, a calibrating curve was formed, which allows to obtain data expressed in international units (IU) of activity, using the microprocessor of the automatic photometer. The results of the analysis are expressed in IU of activity of IFN per ml in the given induction system, which contains 3×10^6 lymphocyte/ml. Each test and control point was investigated in four parallels.
The obtained data were undergone a statistical analysis using t-criterion, and calculation of the confident interval of probability at p=0.05 was carried out. Coincidence between the results obtained in the parallel tests was analyzed.

[7] = test system: mice; assay: Psychodepressant activity (behavioral depression score); format: in vivo; conditions: one hour after per oral 300 mg/kg; total 60 points, less than 40 = significant behavioral depression; 3 mice
Description: Each parameter scores 2 points for an each mouse that had unchanged behavior. The total point sum was 60 (2×10×3 mice). Reducing score to less than 40 one hour after dosing with a substance per oral (300 mg/kg) denoted significant behavioral depression. Haloperidol was utilized as a reference agent.

[8] = test system: rats; assay: Hepatoprotective activity (CCl4 liver damage, AlAT); format: in vivo
Description: CCl4 dissolved in 50% olive oil (1 ml/kg) was subcutaneously administrated to rats. Test substances were administrated perorally in a dose of 20 mg/kg 30 minutes before and 7 hours after the CCL4 administration. The activity of alanine-aminotranspherase (AlAT), which is a marker enzyme of liver parenchyma damage, was assessed twenty-four hours later. Reducing of enzyme amount by more than 30% relative to the control group was considered as evidence of hepatoprotective properties of the substance. Vitamin E in a dose of 100 mg/kg was used as a reference agent.

[9] = compound 100 μg/ml, 36 hours of incubation
[10] = Mycobacterium tuberculosis, H37RV, read-out: MIC

O=c1[nH]cc(N=Cc2ccc(Cl)cc2Cl)c(=O)[nH]1 [XI, 2,4-dioxo-5-(2,4-dichlorobenzylidene) imino-1,3-pyrimidine]
percentage of cell protection from infection [1]: 55% | Number of unchanged cells [1]: 7.700 | activity against chlamydia (in words) [1]: marked activity against chlamydia | Maximal tolerable dose: Concentration of tested compounds (mg/l) at oral introducing [2]: 300 mg/L

O=c1[nH]cc(N=Cc2cc([N+](=O)[O-])ccc2O)c(=O)[nH]1 [XIX, 2,4-dioxo-5-(2-hydroxy-5-nitrobenzylidene) imino-1,3-pyrimidine]
% of protection [3, 9]: 80% | Quantity of the unchanged cells [3, 9]: 8000 | Maximal tolerable dose: Concentration of tested compounds (mg/l) at oral introducing [2]: 300 mg/L

CN(C)c1ccc(C=Nc2c[nH]c(=O)[nH]c2=O)cc1 [XXV, 2,4-dioxo-5-(4-dimethylamino-benzylidene) imino-1,3-pyrimidine]
percentage of cell protection from infection [1]: 55% | Number of unchanged cells [1]: 7.700 | activity against chlamydia (in words) [1]: marked activity against chlamydia | Maximal tolerable dose: Concentration of tested compounds (mg/l) at oral introducing [2]: 300 mg/L

O=c1[nH]cc(N=Cc2cc(I)cc(I)c2O)c(=O)[nH]1 [XXIV, 2,4-dioxo-5-(2-hydroxy-3,5-diiodobenzylidene) imino-1,3-pyrimidine]
MIC [4]: 100 µg/mL (≈ 207 µM) | Maximal tolerable dose: Concentration of tested compounds (mg/l) at oral introducing [2]: 300 mg/L

Cc1c(N(C)CS(=O)(=O)[O-])c(=O)n(-c2ccccc2)n1C.[Na+] [Analginum, reference compound]
Prolongation of the latent period of response (%) ([5]; Analginum 2 mg/kg, reference agent): 86%

[H]/N=C(/N)N[C@H]1[C@H](O)[C@@H](O)[C@H](O[C@@H]2O[C@@H](C)[C@](O)(C=O)[C@H]2O[C@@H]2O[C@@H](CO)[C@H](O)[C@@H](O)[C@@H]2NC)[C@@H](N/C(N)=N\[H])[C@@H]1O [Streptomycin]
MIC [4, 10]: 0.2 µg/mL (≈ 0.344 µM)

CC1COc2c(N3CCN(C)CC3)c(F)cc3c(=O)c(C(=O)O)cn1c23 (stereo not drawn) [Ofloxacin]
MIC [4, 10]: 0.5 µg/mL (≈ 1.38 µM)

O=c1[nH]cc(N=Cc2ccccc2Cl)c(=O)[nH]1 [IV, 2,4-dioxo-5-(2-chlorobenzylidene) imino-1,3-pyrimidine]
Content of IFN in induction mixture after 24-hour incubation ([6]; substance 1 mg/l): 15,2 ± 0,3 IU/3 × 10^4 lymph./ml | Content of IFN in induction mixture after 24-hour incubation ([6]; substance 10 mg/l): 62,5 ± 1,3 IU/3 × 10^4 lymph./ml | Content of IFN in induction mixture after 24-hour incubation ([6]; substance 100 mg/l): 123,6 ± 0,5 IU/3 × 10^4 lymph./ml | Maximal tolerable dose: Concentration of tested compounds (mg/l) at oral introducing [2]: 300 mg/L

O=c1[nH]cc(N=Cc2cc(Br)cc(Br)c2O)c(=O)[nH]1 [XIII, 2,4-dioxo-5-(2-hydroxy-3,5-dibromobenzylidene) imino-1,3-pyrimidine]
% of protection [3, 9]: 80% | Quantity of the unchanged cells [3, 9]: 8000 | Maximal tolerable dose: Concentration of tested compounds (mg/l) at oral introducing [2]: 300 mg/L

COc1cc(C=Nc2c[nH]c(=O)[nH]c2=O)ccc1O [XV, 2,4-dioxo-5-(4-hydroxy-3-methoxybenzylidene) imino-1,3-pyrimidine]
Content of IFN in induction mixture after 24-hour incubation ([6]; substance 1 mg/l): 4,5 ± 1,6 IU/3 × 10^4 lymph./ml | Content of IFN in induction mixture after 24-hour incubation ([6]; substance 10 mg/l): 54,2 ± 1,8 IU/3 × 10^4 lymph./ml | Content of IFN in induction mixture after 24-hour incubation ([6]; substance 100 mg/l): 105 ± 2 IU/3 × 10^4 lymph./ml | Maximal tolerable dose: Concentration of tested compounds (mg/l) at oral introducing [2]: 300 mg/L

O=c1[nH]cc(N=Cc2ccccc2[N+](=O)[O-])c(=O)[nH]1 [XVIII, 2,4-dioxo-5-(2-nitrobenzylidene) imino-1,3-pyrimidine]
MIC [4]: 100 µg/mL (≈ 384 µM) | Maximal tolerable dose: Concentration of tested compounds (mg/l) at oral introducing [2]: 300 mg/L

Rifampycin
MIC [4]: 0.05 µg/mL

O=c1[nH]cc(N=Cc2cc(Br)ccc2O)c(=O)[nH]1 [VIII, 2,4-dioxo-5-(2-hydroxy-5-bromobenzylidene) imino-1,3-pyrimidine]
MIC [4]: 100 µg/mL (≈ 322 µM) | Maximal tolerable dose: Concentration of tested compounds (mg/l) at oral introducing [2]: 300 mg/L

Nc1nc2c(ncn2COCCO)c(=O)[nH]1 [Acyclovir, reference compound]
% of protection ([3]; Acyclovir 30 μg/ml): 80% | Quantity of the unchanged cells ([3]; Acyclovir 30 μg/ml): 8000

O=C(CCCN1CCC(O)(c2ccc(Cl)cc2)CC1)c1ccc(F)cc1 [Haloperidol, reference compound]
Point number [7]: 27

NNC(=O)c1ccncc1 [Isoniazid]
MIC [4, 10]: 0.1 µg/mL (≈ 0.729 µM)

Vitamin E [reference compound]
% of reducing AIAT ([8]; Vitamin E 100 mg/kg, reference agent): −30%

O=c1[nH]cc(N=Cc2cc(Cl)cc(Cl)c2O)c(=O)[nH]1 [XII, 2,4-dioxo-5-(2-hydroxy-3,5-dichlorobenzylidene) imino-1,3-pyrimidine]
% of protection [3, 9]: 90% | Quantity of the unchanged cells [3, 9]: 9000 | MIC [4]: 100 µg/mL (≈ 333 µM) | Point number [7]: 35 | Prolongation of the latent period of response (%) ([5]; intraperitoneal 30 mg/kg, more than 50% = analgesic activity): 96% | % of reducing AIAT ([8]; perorally 20 mg/kg 30 minutes before and 7 hours after CCl4, assessed 24 hours later, relative to control group): −48% | Maximal tolerable dose: Concentration of tested compounds (mg/l) at oral introducing [2]: 300 mg/L

CC[C@@H](CO)NCCN[C@@H](CC)CO [Ethambutol]
MIC [4, 10]: 5 µg/mL (≈ 24.5 µM)
